In patent publication US12686853B2, “Methods and compositions for treatment of muscle disease with iPSC-induced human skeletal muscle stem cells” (UNIVERSITY OF MASSACHUSETTS, priority 2020, dated 2026):
Entries after “also recorded” stand apart in the source; their conditions may differ.

Assays:
Assay type in all cases: cell-based, human
[1] = test system: DUX4; experiment: 24 hr 5-AzaC pulse of FSHD iPM (S2 cells), qPCR of MBD3L2 and MYH8 RNA
Description: (§1) FIG. 11E: qPCR assays of the expression of DUX4 target gene (MBD3L2) RNA and a muscle gene (MYH8) RNA of S2 cells (top panel) and iMyoblasts (bottom panel) following 24 hr treatment with increasing doses of 5-AzaC. 5-AzaC-treated S2 cultures were cultured for 6 days of S2 growth medium (GM) and 7 days in S3 differentiation medium (DM). 5-AzaC-treated iMyoblasts were cultured for 6 days in myoblast growth medium (GM) and 4 days in Opti-MEM differentiation medium. qPCR data were normalized to RPL13A and relative expression is shown normalized to […].
To investigate epigenetic mechanisms responsible for DUX4 repression during reprogramming and iPM induction, a blinded screen was conducted to identify epigenetic drugs that activate DUX4 in FSHD iPM undergoing myogenesis.
iPMs were treated for 24 hr with a pulse of epigenetic drugs, followed by culturing for 7 days in iPM growth medium and 7 days of iPMC differentiation medium. The cultured iPMs were then subjected to qPCR analysis to determine the expression of MBD3L2 RNA (a DUX4 biomarker) and MYH8 RNA (a muscle differentiation marker data now shown). […] See, FIG. 11D. […]
For quantification of housekeeping genes, DUX4 biomarker or muscle differentiation marker expression, 20 ng of cDNA was used for each reaction. For quantification of DUX4 expression, 90-150 ng of cDNA was used in each reaction.

[2] = test system: DUX4; experiment: 5-AzaC treatment of FSHD ESC iPMs; details: data not shown
Description: iPMs were treated for 24 hr with a pulse of epigenetic drugs, followed by culturing for 7 days in iPM growth medium and 7 days of iPMC differentiation medium. The cultured iPMs were then subjected to qPCR analysis to determine the expression of MBD3L2 RNA (a DUX4 biomarker) and MYH8 RNA (a muscle differentiation marker data now shown). […] See, FIG. 11D. […] et al., (2015). […] See, FIG. 11D.

[3] = test system: DUX4; experiment: 5-AzaC treatment of proliferating iMyoblasts, qPCR in myotubes; details: lower concentrations
Description: as §1
iPMs were treated for 24 hr with a pulse of epigenetic drugs, followed by culturing for 7 days in iPM growth medium and 7 days of iPMC differentiation medium. The cultured iPMs were then subjected to qPCR analysis to determine the expression of MBD3L2 RNA (a DUX4 biomarker) and MYH8 RNA (a muscle differentiation marker data now shown). […] See, FIG. 11D. At high 5-AzaC concentrations, MYH8 RNA expression decreased. […] Rickard et al., (2015). […] See, FIG. 11D.
Ribonucleic acid (RNA) was isolated either from cells in culture or from xenoengrafted TA muscles using the RNeasy® Plus Mini Kit (Qiagen) or Aurum® Total RNA Fatty and Fibrous Tissue kit (Bio-Rad) respectively per the manufacturer's specifications. […]

[4] = test system: genome; experiment: Genome-wide methylome analysis using Illumina chip assays after 5-AzaC treatment; details: data not shown
[5] = test system: DUX4 target gene; experiment: Losmapimod treatment of FSHD1 iMyotubes, NanoString digital RNA assays; set-up: dose or concentration left out as unconfirmed; details: Pre- or Post-differentiation treatment with Losmapimod, N2 medium
Text: FIG. 21A: Schematic of Losmapimod treatment protocols for Pre-drug administration at the initiation of iMyotube differentiation and at Post iMyotube differentiation after 4 days in N2 differentiation medium. FIG. 21B: NanoString digital RNA assays of DUX4 target gene and muscle gene expression in carrier treated (UT) FSHID1 iMyoblasts and in iMyotube cultures Pre- or Post-differentiation treatment with […] Losmapimod. Normalized counts of expression are presented on linear scale with each dot corresponding to an individual culture. Data are presented as mean±SEM for each condition. For NanoString RNA quantification, 50 ng or 150 ng of total RNA was used for cell culture and xenografted TA muscle, respectively. A muscle NanoString panel was constructed with human specific probes for muscle protein genes, muscle master regulatory genes, developmental transcription factors, signaling genes and multiple housekeeping genes and used for all analysis on an nCounter SprintR profiler (NanoString Technologies, Seattle, WA). Raw mRNA counts were normalized to a series of housekeeping genes (e.g., RPL13A, GAPDH, GUUSB, and VCP) using nSolverR software (NanoString Technologies, Seattle, WA).

Row | SMILES | DUX4 expression, as assayed by MBD3L2 RNA biomarker expression ([1]; 24 hr pulse, then 7 days iPM growth medium and 7 days iPMC differentiation medium, qPCR) | MYH8 RNA expression ([1]; high 5-AzaC concentrations) | DUX4 expression [2] | DUX4 biomarker expression in myotubes [3] | demethylation, genome-wide methylome analysis [4] | DUX4 target gene expression [5]
1 | Nc1ncn([C@@H]2O[C@H](CO)[C@@H](O)[C@H]2O)c(=O)n1 [5-AzaC, 5-azacytidine] | effectively increased DUX4 expression in a concentration dependent manner; also recorded: can be reversed | decreased | high levels of DUX4 expression | only a small increase | selective demethylation of many sequences throughout the genome | –
2 | Cc1c(F)cc(C(=O)NC2CC2)cc1-c1ccc(C(=O)NCC(C)(C)C)cn1 [Losmapimod] | – | – | – | – | – | decreases; also recorded: inhibited
